In patent US20040198841A1, “Use of thiol-based compositions in ameliorating mucosal injury” (Oregon Health & Science University, priority 2003, published 2004):

Legend:
[1] = Brizel DM, J Clin Oncol 2000; cited from earlier work
[2] = tested on: Normal human gastric cells (NHGC); experiment: WST-1 colorometric assay, chemoprotection against BR96-dox toxicity (Example 4); format: cell-based; conditions: for chemoprotection against BR96-dox toxicity: first test: drug and chemoprotectant co-incubated for 2-3 days
Description: Normal human gastric cells (NHGC) express high levels of the LewisY antigen recognized by the BR96 monoclonal antibody. BR-96 and BR-96-Dox toxicity was examined in NHGC to determine if toxicity could be protected against with thiol chemoprotectants.
(§1) Cytotoxicity is determined as the proportion of live cells, in comparison to untreated controls, using the WST-1 colorometric assay available from Roche Diagnostics, Indianapolis, Ind.

[3] = Weight loss in Long Evans rats 7 days after cisplatin to the aorta, 15 minutes after i.v. saline or NAC (Example 5); format: in vivo; conditions: cisplatin 6 mg/kg via right external carotid artery cannula; NAC 400 mg/kg i.v. 15 minutes before; n=8 per group
Description: Before the study began, the rats were weighed to establish a baseline. Long Evans rats were treated with cisplatin 6 mg/kg delivered to the aorta via a right external carotid artery cannula 15 minutes after intravenous infusion of saline (n=8) or NAC 400 mg/kg (n=8). This procedure was preformed by the rats being induced with isoflurane inhalant (2%+1.5% oxygen), intubated, placed on a respirator and prepped for surgery. Isoflurane was then replaced with propofol (800 μg/kg/min i.v.) and a 50% nitrous/50% oxygen mixture. A ventral midline incision was made from mandible to manubrium. The right carotid bifurcation was exposed and freed, and the right external carotid artery was cannulated. NAC (400 mg/kg) was then given to the treated group (n=8) and i.v. saline was given to the untreated group (n=8). After 15 minutes, the right internal carotid artery was clamped and cisplatin (6 mg/kg) was rapidly infused through the external carotid catheter. The cannula was removed and the skin incisions were closed using 4-0 Vicryl in a simple continuous pattern. Health and well being were monitored daily post-surgery. After seven days, the animals were weighed and this value compared to the baseline.

[4] = Weight loss and diarrhea in Long Evans rats seven days after intra-arterial Cisplatin with or without i.v. NAC (Example 1); format: in vivo; conditions: Cisplatin 6 mg/kg intra-arterially
Description: The graph shown as FIG. 1 represents the weight loss in grams in Long Evans rats seven days after administration of Cisplatin and NAC. Six mg/kg of Cisplatin was given intra-arterially either with or without intravenous (i.v.) administration of NAC at a dosage of 400 mg/kg. The NAC was administered about 15 minutes prior to the Cisplatin administration. The group without NAC consisted of 11 members. The NAC-treated group consisted of 8 members.
In the method of Example 1 for Cisplatin, the Long Evans rats were weighed, induced with isoflurane inhalant (2%+1.5% O2), intubated, placed on a respirator, and prepped for surgery. Isoflurane was then replaced with propofol (800 ug/kg/min i.v.) and a 50% nitrous/50% oxygen mixture. A ventral midline incision was made from mandible to manubrium. The left carotid bifurcation was exposed and freed, and the left external carotid artery was cannulated. NAC was then given intravenously to the treated group and intravenous saline was given to the untreated group. After 15 minutes, the left internal carotid artery was clamped, and Cisplatin (6 mg/kg) was infused through the external carotid catheter. The cannula was removed, and the skin incisions were closed using 4-0 Vicryl in a simple continuous pattern.
Seven days after Cisplatin infusion, the rats were weighed. These body weights were compared to those taken before surgery. […] This is correlated with renal failure and/or mucositis in the untreated group.

[5] = tested on: LX-1 cells; experiment: Chemoprotection in LX-1 cells (Example 4); format: cell-based; conditions: low dosages, about 0.2 to about 0.5 mg/ml
Description: as §1
Low dosages, about 0.2 to about 0.5 mg/ml, of NAC were protective against alkylators in LX-1 cells. NAC was 10-90% chemoprotective of NHGC at high dosages, such as from about 1-5 mg/ml.

[6] = tested on: GM294 human fibroblasts; experiment: WST colorometric cytotoxicity assay, chemoprotection with or without BSO cytoenhancement (Example 3); format: cell-based; conditions: NAC 1000 μg/ml added immediately after melphalan, cisplatin, carboplatin or etoposide phosphate; with or without 100 μM BSO pretreatment
Description: Cytotoxicity was assessed in GM294 human fibroblasts, 1×10^4 cells per well in 96 well plates, using the WST colorometric assay. Cells were pretreated with or without BSO, 100 μM for 18 hours prior to addition of chemotherapeutics (melphalan=10 μg/ml, carboplatin=100 μg/ml, cisplatin=7.5 μg/ml, etoposide phosphate 100 μg/ml) either alone (open bar), or with NAC rescue, (1000 μg/ml N-acetylcysteine, striped bar), BSO cytoenhancement (black bar), or BSO cytoenhancement and NAC rescue (cross hatched bar). Data are expressed as the percentage of live cells compared to control samples (without chemotherapy) and each point represents the mean±s.d. of 4 wells. This was also repeated with normal human gastric cells (NHGC) and gastric epithelial cells.
The fibroblast cells were either preincubated or not preincubated with 100 μM BSO for about 18-24 hours prior to addition of chemotherapy, and rescue consisted of 1000-2000 μg/ml of a thiol anti-mucosal injury agent added immediately after chemotherapy. […] Protection of epithelia cells allows for the prevention and treatment of mucositis of these tissues.

[7] = tested on: LX-1 SCLC; experiment: Weight loss and survival in nude rats 12 days after intracerebral inoculation with LX-1 SCLC cells, with or without oral TMZ (Example 2); format: in vivo
Description: TMZ was given at a dosage of 5 mg orally, once daily, on days 6-11. There were 10 members in the untreated group and seven members in the group treated with TMZ.
For the intracerebral inoculations, the nude rats were anesthetized with a mixture of intraperitoneal ketamine (60 mg/kg) and diazepam (7.5 mg/kg). The head was shaved and scrubbed with Betadine, a midline incision made, and a 2 mm burr hole using stereotaxic coordinates was made. A 27 g needle was used for inoculation with a 100 ul Hamilton syringe, placed […] ventral to the surface, deep in the right caudate putamen. Inoculants used were LX-1 SCLC. The needle was withdrawn and the incision closed with wound clips. One group of rats received no treatment, while the other group received oral 5 mg doses of TMZ, an alkylating agent, once daily on days 6-11 after inoculation, delivered through a feeding tube while under isoflurane anesthesia. On day 12, all rats were weighed, sacrificed, and the brains removed and fixed in formalin for subsequent tumor-volume analysis.
It is believed that TMZ effects the size of any lesions in the brain. The TMZ may decrease the size of any lesions in the brain; those animals experiencing more constant or improved appetite than animals with larger tumors which experienced appetite suppression.

[8] = NAC 400 mg/kg i.v. 15 minutes prior

NCCCNCCSP(=O)(O)O [Amifostine, amifostine]
effect on mucositis in patients undergoing radiation therapy [1]: not to reduce mucositis

CCOC(=O)CNC(=O)[C@H](CS)NC(=O)CC[C@H](N)C(=O)O [GSH ethyl ester, glutathione ethyl ester]
chemoprotection against BR96-dox toxicity [2]: No chemoprotection

CC(=O)N[C@@H](CS)C(=O)O [NAC, N-acetylcysteine]
weight loss after 7 days compared to control [3]: less weight loss than the control | chemoprotective of NHGC ([2]; first test: co-incubated for 2-3 days, high dosages, about 1-5 mg/ml): 10-90% | chemoprotective, pulsed treatment ([2]; second test: 4 hour pulsed treatment with BR-96-dox and NAC): 0-20% | diarrhea, group without NAC compared to NAC treated group [4, 8]: greater diarrhea than the NAC treated group | subjective condition of untreated rats compared to NAC-treated group [4, 8]: more depressed, cachexic, and dehydrated than the NAC-treated group | loss of body weight after 7 days, group without NAC compared to NAC-treated group ([4]; NAC 400 mg/kg i.v. about 15 minutes prior, unpaired t-test p<0.0002): significantly larger loss of body weight | protection against alkylators in LX-1 cells [5]: protective | chemoprotection of fibroblast cells (percentage of live cells) [6]: protective effect

O=S([O-])([O-])=S.[Na+].[Na+] [STS, sodium thiosulfate]
chemoprotection against BR96-dox toxicity [2]: No chemoprotection

Cn1nnc2c(C(N)=O)ncn2c1=O [TMZ, Temazolamide]
subjective activity at day 12 compared to untreated group ([7]; TMZ 5 mg orally once daily on days 6-11): more active and responsive | survival to day 12 ([7]; TMZ 5 mg orally once daily on days 6-11, three rats without TMZ did not survive to day 12): all of the TMZ rats survived to day 12 | loss of body weight at day 12, group without TMZ compared to group treated with TMZ ([7]; TMZ 5 mg orally once daily on days 6-11 after inoculation, unpaired t-test p<0.0041): significantly higher loss of body weight

CSCC[C@@H](N)C(=O)O [d-Methionine, D-methionine]
chemoprotection against BR96-dox toxicity [2]: No chemoprotection
